Measured values published in patent US4236015A, “1-(2-Acylaminophenyl)imidazoles” (Westwood Pharmaceuticals, Inc., priority 1979, dated 1980).

Assays:
T. agelloi = experiment: Antifungal activity, agar dilution method; type: cell-based, Trichophyton ajelloi
Protocol: (§1) Various compounds of this invention display antifungal and anti-yeast activity.
(§2) In Table IX below are listed the antifungal activity of a number of compounds encompassed in the present invention. These were determined by the agar dilution method as described in Chapters 2 and 3 of Methods in Microbiology, Vol. 7B, edited by J. R. Norris and D. W. Ribbons, Academic Press, New York, 1972.

rat paw edema = experiment: Rat paw edema assay, oral dosing; type: in vivo; settings: 4 hours
Protocol: (§3) The anti-inflammatory activity of representative compounds of this invention was determined by the rat paw edema assay both by local administration (Table XI below) and by oral dosing (Table XII below). For the oral dosing, the procedure of C. A. Winter, E. A. Risley and G. W. Nuss, Proc. Soc. Exp. Biol. Med. 111, 544 (1962) was employed with measurement taken four hours after the drug was administered. The local administration tests were carried out similarly except the irritant (carrageenan) and the test compound were injected simultaneously at time zero. Tables XI and XII report the anti-inflammatory activity of the compounds tested as % difference in the edema or swelling as compared with the control. These Tables also give the response in many instances of more than one dose level of the same drug.

[1] = system: Trichophyton mentagrophytes; experiment: Antifungal activity, agar dilution method; type: cell-based, Trichophyton mentagrophytes (ATCC No. 8757 and 9129)
Protocol: as §1, §2

Candida albicans = experiment: Antifungal activity, agar dilution method; type: cell-based, Candida albicans (ATCC No. 10231)
Protocol: as §1, §2

[2] = system: humeral or antibody response; experiment: Hemolysin test in mice; type: in vivo; settings: s.c., 50% reduction of antibody activity vs control
[3] = system: cell-mediated immune response to the antigen, Mycobacterium tuberculosis H37Ra; experiment: Delayed hypersensitivity test; type: in vivo, mouse; settings: for D.H.S. (ED60): s.c., mice, 60% reduction of edema of cell-mediated immune response vs control
Protocol: The immunosuppressant activities of the compounds of this invention were determined via the hemolysin test in mice and by the delayed hypersensitivity test. The hemolysin test used is that described in Methods in Immunology, edited by D. H. Campbell et al, W. A. Benjamin, New York 1963 pages 172-175, and measures humeral or antibody response. The delayed hypersensitivity test measures the effect of a test compound on the ability of a subject mouse to mount a cell-mediated immune response to the antigen, Mycobacterium tuberculosis H37Ra. The mouse is sensitized to the antigen by subcutaneous administration in the base of the tail. The development of the delayed hypersensitivity response may be measured at any time beginning six days after sensitization but is usually done on the ninth day as follows: The right hind paw is injected with purified protein derivative (tuberculin) while the left hind paw (control) receives physiological saline. Both paw volumes are measured after twenty-four hours and significant increase in the volume of the right hind paw is taken as a measure of an effective delayed hypersensitivity response. All compounds were administered by the subcutaneous route.
The D.H.S. (ED60) mg./kg. s.c. value appearing in column 3 is an expression of the effectiveness of the drug in reducing the edema that accompanies the cell-mediated immune response. It is a measure of the number of milligrams per kilogram of body weight of the drug administered subcutaneously which is required to reduce the edema of the cell-mediated immune response by 60% when compared to the control.

Candida tropicalis = experiment: Antifungal activity, agar dilution method; type: cell-based
Protocol: as §1, §2

Trichophyton rubrum = experiment: Antifungal activity, agar dilution method; type: cell-based, Trichophyton rubrum (ATCC No. 10218 and 14001)
Protocol: as §1, §2

[4] = system: carrageenan rat paw edema; experiment: Rat paw edema assay, local administration; type: in vivo; settings: 100 mg/kg
Protocol: as §3

Compound | Parts Per Million Inhibitions, T. agelloi (T. agelloi) [Parts Per Million] | Difference from Control (rat paw edema; 100 mg/kg) [%] | Parts Per Million Inhibitions, T. mentagrophytes [1] [Parts Per Million] | Parts Per Million Inhibitions, C. albicans (Candida albicans) [Parts Per Million] | HL(ED50) [2] [mg/kg] | D.H.S. (ED60) [3] [mg/kg] | Parts Per Million Inhibitions, C. tropicalis (Candida tropicalis) [Parts Per Million] | Parts Per Million Inhibitions, T. rubrum (Trichophyton rubrum) [Parts Per Million] | Difference from Control (rat paw edema; 400 mg/kg) [%] | % Difference from Control [4] [%] | ED60 ([3]; Mus musculus, sc, read-out: D.H.S. (ED60)) [mg/kg]
Cc1ccccc1-c1nc2ccccc2n2ccnc12 [Compound 132] | 100 | -76 | 100 |  |  |  |  |  |  |  | 
Cc1cccc(-c2nc3ccccc3n3ccnc23)c1 [Compound 133] | 8 | -17 | 8 | 100 | 0.75 | 32 | 100 | 8 |  |  | 
Cc1ccc(-c2nc3ccccc3n3ccnc23)cc1 [Compound 134] | 100 | -43 | 16 |  | 0.5 | 7.2 |  |  |  |  | 
c1ccc(-c2ccc(-c3nc4ccccc4n4ccnc34)cc2)cc1 [Compound 135] | 100 |  | 100 |  | 0.033 | 0.22 |  |  |  |  | 
FC(F)(F)c1cccc(-c2nc3ccccc3n3ccnc23)c1 [Compound 136] |  | -9 | 100 |  | 2.7 | > 50 |  |  | -25 |  | 
CC(C)(C)c1ccc(-c2nc3ccccc3n3ccnc23)cc1 [Compound 137] | 100 | -26 | 100 |  | < 0.125 | 3.2 |  |  |  |  | 
COc1cc(OC)cc(-c2nc3ccccc3n3ccnc23)c1 [Compound 139] |  | -22 | 100 |  | 3.0 | > 50 |  |  | -25 |  | 
Clc1ccc(-c2nc3ccccc3n3ccnc23)cc1 [Compound 140] |  | -35 |  |  | 0.26 | 1.15 |  | < 0.5 |  | -78 | 
CCCCCCCCCC(=O)Oc1ccc(-c2nc3ccccc3n3ccnc23)cc1 [Compound 165] | 100 |  | 100 |  |  |  |  | 100 |  |  | 
c1ccc(Oc2ccc(-c3nc4ccccc4n4ccnc34)cc2)cc1 [Compound 219] |  |  |  |  |  |  |  |  |  |  | < 32
